Measured values reported in PubChem BioAssay AID330 (DTP/NCI, 2004).
Values joined by “and” are separate entries in the source; they are usually repeats but may differ in a detail not shown here. Equal entries are not always repeated. Inconclusive results and toxic doses are left out. The calls were made as follows: active = survival T/C of 150% or more; inactive = T/C below 125% in these data.

Tested on: P388 leukemia ip, CD2F1 mice, survival T/C
Assay: NCI In Vivo Anticancer Drug Screen. Data for tumor model P388 Leukemia (intraperitoneal) in CD2F1 (CDF1) mice
Details: endpoint: median survival time, higher = longer survival
In short: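 Mice carrying the transplanted tumor received test compound or vehicle. Survival was recorded in each group, and the value is the treated-group measurement divided by that of the vehicle-treated control group.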

[1] = dose: 12.5 mg/kg/injection, schedule: Q01DX009 (ip), vehicle: saline with Tween-80
[2] = dose: 25.0 mg/kg/injection, schedule: Q01DX009 (ip), vehicle: saline with Tween-80
[3] = dose: 50.0 mg/kg/injection, schedule: Q01DX009 (ip), vehicle: saline with Tween-80
[4] = dose: 60.0 mg/kg/injection, schedule: Q01DX005 (ip), vehicle: saline with Tween-80
[5] = dose: 100.0 mg/kg/injection, schedule: Q01DX009 (ip), vehicle: Klucel (hydroxypropylcellulose) (HPC)
[6] = dose: 200.0 mg/kg/injection, schedule: Q01DX009 (ip), vehicle: Klucel (hydroxypropylcellulose) (HPC)
[7] = dose: 100.0 mg/kg/injection, schedule: Q01DX009 (ip), vehicle: saline with Tween-80
[8] = dose: 50.0 mg/kg/injection, schedule: Q01DX005 (ip), vehicle: Klucel (hydroxypropylcellulose) (HPC)
[9] = dose: 100.0 mg/kg/injection, schedule: Q01DX005 (ip), vehicle: Klucel (hydroxypropylcellulose) (HPC)
[10] = dose: 50.0 mg/kg/injection, schedule: Q01DX005 (ip), vehicle: saline
[11] = dose: 100.0 mg/kg/injection, schedule: Q01DX005 (ip), vehicle: saline
[12] = dose: 200.0 mg/kg/injection, schedule: Q01DX005 (ip), vehicle: saline
[13] = dose: 200.0 mg/kg/injection, schedule: Q01DX009 (ip), vehicle: saline with Tween-80

Measured: T/C

NNCCO
inactive: dose: 3.12 mg/kg/injection, schedule: Q01DX009 (ip), vehicle: saline with Tween-80 108 % of control | dose: 6.25 mg/kg/injection, schedule: Q01DX009 (ip), vehicle: saline with Tween-80 99 % of control and 100 % of control | [1] 99 % of control and 103 % of control | [2] 100 % of control and 104 % of control | [3] 100 % of control

CN1C(Cl)=NS(=O)(=O)c2ccccc21
inactive: dose: 30.0 mg/kg/injection, schedule: Q01DX005 (ip), vehicle: saline with Tween-80 120 % of control | [4] 112 % of control and 95 % of control

COc1cccc(-c2nsc(=O)o2)c1
inactive: [5] 108 % of control | [6] 109 % of control

ClCSCc1ccccc1
inactive: dose: 12.5 mg/kg/injection, schedule: Q01DX009 (ip), vehicle: other 110 % of control | dose: 25.0 mg/kg/injection, schedule: Q01DX009 (ip), vehicle: other 110 % of control | dose: 50.0 mg/kg/injection, schedule: Q01DX009 (ip), vehicle: other 110 % of control

CCCCC/C=C\C/C=C\CCCCCCCC(=O)O
inactive: dose: 50.0 mg/kg/injection, schedule: Q01DX009 (ip), vehicle: Klucel (hydroxypropylcellulose) (HPC) 93 % of control | [5] 112 % of control | [6] 107 % of control | dose: 400.0 mg/kg/injection, schedule: Q01DX009 (ip), vehicle: Klucel (hydroxypropylcellulose) (HPC) 101 % of control

Nc1cccc(NC=O)c1
inactive: dose: 12.5 mg/kg/injection, schedule: Q04DX003 (ip), vehicle: saline with Tween-80 100 % of control | dose: 25.0 mg/kg/injection, schedule: Q04DX003 (ip), vehicle: saline with Tween-80 110 % of control | dose: 50.0 mg/kg/injection, schedule: Q04DX003 (ip), vehicle: saline with Tween-80 100 % of control

Cc1cc(=O)[nH]c(N/N=C/c2c(O)ccc3ccccc23)n1
inactive: [1] 93 % of control | [2] 88 % of control | [3] 87 % of control | [7] 102 % of control

O=C(O)c1ccccc1Oc1ccccc1C(=O)O
inactive: dose: 100.0 mg/kg/injection, schedule: Q04DX003 (ip), vehicle: saline 100 % of control | dose: 200.0 mg/kg/injection, schedule: Q04DX003 (ip), vehicle: saline 100 % of control | dose: 400.0 mg/kg/injection, schedule: Q04DX003 (ip), vehicle: saline 100 % of control

O=C(c1ccccc1)c1no[n+]([O-])c1C(=O)c1ccccc1
inactive: dose: 3.12 mg/kg/injection, schedule: Q01DX009 (ip), vehicle: Klucel (hydroxypropylcellulose) (HPC) 102 % of control and 114 % of control and 116 % of control | dose: 6.25 mg/kg/injection, schedule: Q01DX009 (ip), vehicle: Klucel (hydroxypropylcellulose) (HPC) 100 % of control and 117 % of control | dose: 12.5 mg/kg/injection, schedule: Q01DX009 (ip), vehicle: Klucel (hydroxypropylcellulose) (HPC) 105 % of control and 123 % of control

C=CCOC1C=C(C)C(=O)O1 (configuration not stated)
inactive: dose: 41.5 mg/kg/injection, schedule: Q01DX005 (ip), vehicle: saline with Tween-80 100 % of control | dose: 83.0 mg/kg/injection, schedule: Q01DX005 (ip), vehicle: saline with Tween-80 103 % of control | dose: 166.0 mg/kg/injection, schedule: Q01DX005 (ip), vehicle: saline with Tween-80 109 % of control

COc1c(C)c2c(c(C)c1Cl)Oc1c(C)c(O)c(Cl)c(C)c1C(=O)O2
inactive: dose: 1.12 mg/kg/injection, schedule: Q01DX009 (ip), vehicle: Klucel (hydroxypropylcellulose) (HPC) 112 % of control | dose: 2.25 mg/kg/injection, schedule: Q01DX009 (ip), vehicle: Klucel (hydroxypropylcellulose) (HPC) 105 % of control | dose: 4.5 mg/kg/injection, schedule: Q01DX009 (ip), vehicle: Klucel (hydroxypropylcellulose) (HPC) 108 % of control | dose: 9.0 mg/kg/injection, schedule: Q01DX009 (ip), vehicle: Klucel (hydroxypropylcellulose) (HPC) 96 % of control | dose: 18.0 mg/kg/injection, schedule: Q01DX009 (ip), vehicle: Klucel (hydroxypropylcellulose) (HPC) 102 % of control

COc1ccc(-n2c3c(c4c(N)ncnc42)CCCC3)cc1
inactive: [4] 105 % of control | dose: 120.0 mg/kg/injection, schedule: Q01DX005 (ip), vehicle: saline with Tween-80 93 % of control

CC(=O)O[C@@H]1C[C@@](C)(C[C@H]2COC(=O)C2)[C@@H]2CC(=O)O[C@@H]3C[C@H]4C(C)=C[C@@H](O)C(=O)[C@]4(C)[C@@H]1[C@@]32C
inactive: dose: 1.5 mg/kg/injection, schedule: Q01DX009 (ip), vehicle: Klucel (hydroxypropylcellulose) (HPC) 99 % of control | dose: 3.0 mg/kg/injection, schedule: Q01DX009 (ip), vehicle: Klucel (hydroxypropylcellulose) (HPC) 92 % of control | dose: 6.0 mg/kg/injection, schedule: Q01DX009 (ip), vehicle: Klucel (hydroxypropylcellulose) (HPC) 108 % of control | dose: 12.0 mg/kg/injection, schedule: Q01DX009 (ip), vehicle: Klucel (hydroxypropylcellulose) (HPC) 91 % of control

Nc1nc(C2CCCCC2)c(I)c(=O)[nH]1
inactive: [8] 101 % of control | [9] 103 % of control | dose: 200.0 mg/kg/injection, schedule: Q01DX005 (ip), vehicle: Klucel (hydroxypropylcellulose) (HPC) 97 % of control

O=C1CCSC(=S)N1c1ccc(Br)c(Cl)c1
inactive: dose: 50.0 mg/kg/injection, schedule: Q01DX009 (ip), vehicle: suspension in saline 116 % of control | dose: 100.0 mg/kg/injection, schedule: Q01DX009 (ip), vehicle: suspension in saline 116 % of control | dose: 200.0 mg/kg/injection, schedule: Q01DX009 (ip), vehicle: suspension in saline 106 % of control

O=C(CN1CCNCC1)N1CCOCC1
inactive: [10] 100 % of control | [11] 102 % of control | [12] 97 % of control

COC(=O)/C=C/C=C/c1ccco1
inactive: [3] 99 % of control | [7] 87 % of control | [13] 89 % of control

c1ccc2c(c1)[nH]c1c2nc2ncccn21
inactive: [8] 106 % of control | [9] 106 % of control

COC(=O)C(N)COC(=O)c1ccccc1 (configuration not stated)
inactive: [10] 101 % of control | [11] 100 % of control | [12] 100 % of control

COCCC(=O)SCc1ccccc1
inactive: dose: 50.0 mg/kg/injection, schedule: Q01DX005 (ip), vehicle: saline with Tween-80 103 % of control | dose: 100.0 mg/kg/injection, schedule: Q01DX005 (ip), vehicle: saline with Tween-80 96 % of control | dose: 200.0 mg/kg/injection, schedule: Q01DX005 (ip), vehicle: saline with Tween-80 107 % of control

O=C1c2cccc([N+](=O)[O-])c2C(=O)C1c1ccccn1 (configuration not stated)
inactive: [3] 99 % of control | [7] 87 % of control | [13] 96 % of control | dose: 400.0 mg/kg/injection, schedule: Q01DX009 (ip), vehicle: saline with Tween-80 97 % of control
